From US12552790B2, “Positive modulators of the muscarinic acetylcholine receptor M4” (Vanderbilt University, priority 2023, dated 2026)
pEC50: −log10 of the molar value. Where two headings read alike, the source gives them in different places.

Molecular target: T1, hM4 (Homo sapiens, UniProt P08173)
T1 construct: expressed in transfected cells; host or cells: CHO cells stably expressing human M4 (G418 selection only)
T1 sequence (P08173 1-479): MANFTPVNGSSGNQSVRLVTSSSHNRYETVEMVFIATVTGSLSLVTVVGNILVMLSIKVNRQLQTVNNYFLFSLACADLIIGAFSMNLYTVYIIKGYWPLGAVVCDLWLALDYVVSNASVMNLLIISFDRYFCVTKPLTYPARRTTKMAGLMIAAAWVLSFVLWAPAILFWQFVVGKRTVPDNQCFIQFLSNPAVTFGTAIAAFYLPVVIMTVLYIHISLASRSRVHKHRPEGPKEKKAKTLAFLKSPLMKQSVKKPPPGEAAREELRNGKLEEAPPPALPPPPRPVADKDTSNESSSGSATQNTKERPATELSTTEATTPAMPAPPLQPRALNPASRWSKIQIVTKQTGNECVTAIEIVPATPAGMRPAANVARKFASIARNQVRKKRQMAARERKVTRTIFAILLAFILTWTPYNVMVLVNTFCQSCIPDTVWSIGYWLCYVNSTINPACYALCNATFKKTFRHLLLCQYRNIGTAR
Assay: Cellular cAMP Gi HTRF assay in CHO cells, agonist and potentiator modes
Format: cell-based
Text: Activation of the M4 receptor leads to the inhibition of cAMP production by coupling to Gi/o proteins. To measure the level of cAMP inhibition by M4 allosteric modulators, a Homogeneous Time-Resolved Fluorescence (HTRF®) cAMP assay was employed using CHO cells stably expressing human or rat M4 receptors. The HTRF cAMP assay is a Time-Resolved Resonance Energy Transfer (TR-FRET) competitive immunoassay. Endogenous intracellular cAMP generated by cells competes with Europium cryptate-labeled cAMP (Europium donor, emission […]) for the binding to a cAMP antibody labeled with d2 (d2-acceptor, emission […]). Thus, the fluorescence emission ratio (665 nm/620 nm) is inversely proportional to the cAMP amount in the cells. Compound-mediated M4 activation results in an increase in HTRF ratio (665 nm/620 nm), indicative of a decrease in intracellular cAMP level. To monitor agonist activity, compounds were added to the M4 cells in the presence of an EC80 concentration of forskolin (adenylyl cyclase activator) which induces a submaximal intracellular cAMP level. To assess potentiator activity, compounds were added to the M4 cells with an EC80 concentration of forskolin in the presence of an EC20 concentration of acetylcholine. This functional assay allows determination of the potency and efficacy of compounds directly activating or potentiating the Gi/o-coupled M4 receptor; representative data are shown in Table 3.
Functional agonist and potentiator activities of compounds were determined by measuring cAMP levels in Chinese Hamster Ovary (CHO) cells stably expressing human or rat M4 muscarinic receptors using an HTRF cAMP Gi/o kit. Cells were maintained in F12 medium containing 10% FBS, 20 mM HEPES, 1× Antibiotic/Antimycotic, and G418 (500 μg/ml) in 37° C. humidified incubators in the presence of 5% CO2. The day before assay, the cells were trypsinized and resuspended in plating medium (growth medium without G418). The cells were plated to white, solid, flat-bottomed, 384 well plates at densities of 4,000 and 6,000 cells/[…]/well, of human M4 and rat M4 cells, respectively. The cell plates were spun at 100×g for 1 min, then immediately placed in a 37° C. incubator in the presence of 5% CO2 overnight.
The next day, reagents were freshly diluted at a 2× concentration in assay buffer using F12 basal medium or stimulation buffer. All assay buffers contained 500 μM IBMX to block cAMP degradation. Activation of M4 by compounds was examined in cells stimulated with an EC80 concentration of forskolin to induce submaximal intracellular cAMP levels. Forskolin EC80 concentrations were determined from forskolin concentration response curves (CRCs) and ranged from 1.5 to 2.5 μM. Compounds (10 mM) were prepared in 100% DMSO and further serially diluted either 1:3 or 1:5 into a […] CRC in DMSO using a Bravo Liquid Handler in a 384 well microplate.
Agonist assay mode was used to assess the abilities of M4 compounds to directly activate M4 receptors in the absence of the agonist, acetylcholine. The 10-point serially diluted compounds, starting 30 μM as a final concentration, were transferred to a compound plate using an Echo plate reformat protocol. 2× assay buffer containing an EC80 concentration of forskolin concentration was added to the compound plate. Vehicle (1% DMSO) was added to the following control wells; baseline cAMP (no forskolin), forskolin max, and forskolin EC80. 10 μL/well of the prepared 2× assay buffer was immediately added to the cell plates using a Bravo 384 well tip liquid handler. The cell plates were immediately spun for 30 seconds at 100×g and incubated at 37° C. for 10 min with gentle shaking at 50 rpm. An acetylcholine CRC was also performed in the presence of an EC80 concentration of forskolin to determine the concentrations of acetylcholine inducing maximal (ECmax) and submaximal (EC20) cAMP inhibition in order to prepare for the subsequent potentiator mode assay. […]

[1] = agonist mode, forskolin EC80, no acetylcholine
[2] = agonist mode, forskolin EC80, no acetylcholine, read-out: hM4_cAMP Activity Agonist EC50
[3] = potentiator mode, forskolin EC80 plus ACh EC20
[4] = potentiator mode, forskolin EC80 plus ACh EC20, read-out: hM4_cAMP Activity PAM EC50

Row | Structure (SMILES) | hM4_cAMP Activity Agonist % ACh Max [1] | pEC50 [2] | hM4_cAMP Activity PAM % ACh Max [3] | pEC50 [4]
1 | [2H]C1([2H])Oc2ccc(OC3CCN(c4nc5c(cc4C)C(=O)NC5)CC3)cc2OC1([2H])[2H] [Compound 3, 2-(4-((2,3-dihydrobenzo[b][1,4]dioxin-6-yl-2,2,3,3-d4)oxy)piperidin-1-yl)-3-methyl-6,7-dihydro-5H-pyrrolo[3,4-b]pyridin-5-one] | 106 % ACh Max | 7.70 | 94 % ACh Max | 8.22
2 | [2H]C1([2H])Oc2ccc(OC3CCN(c4nc5nn(C)c(=O)n5cc4C)CC3)cc2OC1([2H])[2H] [Compound A6, 7-(4-((2,3-dihydrobenzo[b][1,4]dioxin-6-yl-2,2,3,3-d4)oxy)piperidin-1-yl)-2,6-dimethyl-[1,2,4]triazolo[4,3-a]pyrimidin-3(2H)-one] | 89 % ACh Max | 7.80 | 70 % ACh Max | 8.52
3 | [2H]C1([2H])Oc2ccc(OC3CCN(c4nc5nn(C)c(=O)n5c(C)c4C)CC3)cc2OC1([2H])[2H] [Compound A10, 7-(4-((2,3-dihydrobenzo[b][1,4]dioxin-6-yl-2,2,3,3-d4)oxy)piperidin-1-yl)-2,5,6-trimethyl-[1,2,4]triazolo[4,3-a]pyrimidin-3(2H)-one] | 105 % ACh Max | 8.15 | 82 % ACh Max | 8.70
